Data published in publication PMC11400632, “Substrate selectivity and inhibition of the human lysyl hydroxylase JMJD7” (Protein Science : A Publication of the Protein Society, 2024).

How the values were obtained:
Type in all cases: biochemical
human JMJD7 [1] = target: T1, human JMJD7 (Homo sapiens, UniProt P0C870); test: NMR assay of JMJD7-catalyzed reaction of DRG1 peptides; conditions: 200 μM peptide, 10 μM JMJD7, 30 μM FAS, 200 μM 2OG, 500 μM LAA, phosphate buffer 10% D2O, pH 7.4, 1H NMR time-course
T1 construct: human JMJD7 (residues 1–316) with an N‐terminal His6‐tag; His6 (N); made in house; host or cells: Escherichia coli Rosetta (DE3)
T1 sequence (P0C870 whole entry, the tested form may be a part): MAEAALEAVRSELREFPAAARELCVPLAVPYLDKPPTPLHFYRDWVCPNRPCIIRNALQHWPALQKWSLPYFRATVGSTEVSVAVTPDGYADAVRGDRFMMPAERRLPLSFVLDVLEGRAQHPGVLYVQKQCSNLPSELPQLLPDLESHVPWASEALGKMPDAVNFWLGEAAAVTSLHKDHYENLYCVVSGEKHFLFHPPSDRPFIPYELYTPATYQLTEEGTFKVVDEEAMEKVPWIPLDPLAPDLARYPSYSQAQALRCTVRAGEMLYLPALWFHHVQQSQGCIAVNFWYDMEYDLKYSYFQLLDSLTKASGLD
Experimental: To validate the fragmentation of the product on hydroxylation of the DRG1‐CysNH2 peptide, we performed NMR studies focusing on the appearance of small molecules, comparing the results with the DRG1‐Lys substrate. Reactions were carried out by incubating the DRG1 peptide (200 μM) in the presence or absence of enzyme (10 μM JMJD7, 30 μM FAS, 200 μM 2OG, 500 μM LAA, phosphate buffer in 10% D2O v/v, pH 7.4). […] The observation of a DRG1‐CysNH2 derived product with two methylene groups (triplets, δ ~ 3.13 ppm, δ ~ 2.75 ppm) together with spiking using a standard solution confirmed the formation of cysteamine (Figure 4c (1), Figure S35a). […] A loss in intensity of the cysteamine peaks was observed over time, possibly indicating oxidation and/or interactions with JMJD7 (Figure S35).
Stock solutions of L‐ascorbate (LAA; 500 mM), 2‐oxoglutarate (2OG; 20 mM), ferrous ammonium sulphate (FAS; 100 mM), and (trimethylsilyl)propionic‐2,2,3,3‐d 4 (TSP‐d 4; 8 mM) were freshly prepared in water on the day NMR assays were run. These stock solutions of LAA, FAS, and 2OG were diluted using aqueous buffer (50 mM sodium phosphate, pH 7.4, 10% v/v D2O) to give FAS (0.3 mM), 2OG (2 mM), and LAA (5 mM). DRG1 peptides were solubilized in buffer to a final concentration of 2 mM for use in NMR assays. […] Turnover was quantified using TSP‐d 4 as an internal standard.

human JMJD7 [2] = target: T1, human JMJD7; test: SPE-MS time-course and steady-state kinetics of JMJD7-catalyzed hydroxylation; conditions: 1.0 μM peptide, 50 nM JMJD7, SPE-MS time-course
Experimental: Having shown that introduction of γ‐thialysine and γ‐azalysine residues into DRG1 peptides generates substrates that are efficiently hydroxylated by JMJD7, giving nascent products that fragment to give formylglycine, we explored whether these two peptides could compete with the DRG1‐Lys substrate for JMJD7 catalysis. The reactions of DRG1‐Lys, DRG1‐CysNH2 and DRG1‐LysN (1.0 μM) by JMJD7 (50 nM) were investigated as a function of time using SPE‐MS assays.
To quantify the relative efficiencies of DRG1‐Lys and the substrate analog DRG1‐LysE, we carried out kinetics analyses using SPE‐MS assays as the levels of JMJD7‐catalyzed hydroxylation were sufficient for these two substrates.
JMJD7 turnover assays for kinetic studies were performed in 96‐well polypropylene assay plates with 1.0 mL total reaction volume using a series of concentrations of the DRG1 peptide (0.1–5.0 μM), 2OG (20 μM), FAS (10 μM), LAA (100 μM). Reactions were initiated by the addition of JMJD7 (100 nM). MS‐analyses were performed using a RapidFire RF 365 high‐throughput sampling robot (Agilent) attached to an iFunnel Agilent 6550 accurate mass quadrupole time‐of‐flight (Q‐TOF) mass spectrometer operated in the positive ionization mode. The RapidFire RF 365 high‐throughput sampling robot was programmed to aspirate samples from the reaction mixture at the indicated time intervals. Assay samples were loaded onto a C4 solid phase extraction (SPE) cartridge and peptides were eluted using given previous protocols (Tumber et al., [2023]). The % conversion of the hydroxylation reaction were calculated from the ion chromatogram data by integrating peak areas using RapidFire Integrator 4.3.0 software (Agilent).

human JMJD7 [3] = target: T1, human JMJD7; test: LC-MS assay of JMJD7-catalyzed hydroxylation/oxidation of DRG1 peptides; conditions: standard conditions: 2 μM JMJD7, 10 μM peptide, 10 μM 2OG, 2 h
Experimental: Initial assays were carried out by incubation of purified recombinant (Markolovic et al., [2018]) human JMJD7 (2 μM) in the presence of a DRG1 derived peptide (10 μM), 2OG (10 μM), ferrous ammonium sulfate (FAS, 10 μM), and L‐ascorbate (LAA, 100 μM) in Tris buffer at pH 7.5 for 2 h at room temperature. Potential conversion to a hydroxylated product (+16 Da mass shift) was monitored by liquid‐chromatography‐mass‐spectrometry (LC–MS). […] The assay results also implied that DRG1‐Orn was hydroxylated, but to a lower extent (~21%) than DRG1‐Lys. […] The alcohol‐containing peptide hydroxynorleucine (DRG1‐HNle), was hydroxylated at relatively low levels (~24%), implying that H‐bonding interactions and positive charge of the N^ɛ‐amino group of lysine are important for efficient binding and catalysis, but that a neutral alcohol can still be accommodated at the active site (Figure 3f) (Markolovic et al., [2018]).
All reagents were procured from Sigma Aldrich. 2‐Oxoglutarate (2OG, 10 mM) and L‐ascorbic acid (LAA, 50 mM) solutions were prepared freshly by dissolving the solids in deionized water. Ferrous ammonium sulfate (FAS) solution was prepared freshly by dissolving FAS at 400 mM in 20 mM HCl with subsequent dilution to 1 mM using deionized water. JMJD7 assays using DRG1 (16–40) based peptides were performed with the following conditions: (i) 2 or 5 μM JMJD7, 10 μM DRG1 peptide, 100 μM LAA, 10 μM FAS, 10 μM 2OG in mM 50 Tris‐buffer (pH 7.5), (ii) 2 μM JMJD7, 10 μM DRG1 peptide, 100 μM LAA, 10 μM FAS, 20 μM 2OG in mM 50 Tris‐buffer (pH 7.5). Reactions were initiated by addition of enzyme to the cosubstrate/substrate solution in a final reaction volume of 50 μL with 2 h incubation at room temperature. A positive control reaction containing enzyme and a validated peptide substrate was included in all screening studies. After 2 h, reactions were stopped by addition of 5 μL of 10% (v/v) LC–MS grade formic acid (Fisher Scientific) and transferred to a 96 well plate (Agilent). Intact mass peptide analysis was performed by LC–MS using an Agilent 1290 infinity II LC system equipped with an Agilent 1290 multisampler and an Agilent 1290 high speed pump and connected to an Agilent 6550 accurate mass iFunnel quadrupole time of flight (Q‐TOF) mass spectrometer. The reaction mixture (4 μL) was injected and loaded onto a ZORBAX RRHD Eclipse Plus C18 column (Agilent). Solvent A consisted of LC–MS grade water containing 0.1% (v/v) formic acid and solvent B consisted of MeCN containing 0.1% (v/v) formic acid. Peptides were separated using a step wise gradient (0 min – 95% solvent A, 1.0 min – 80% solvent A, 3.0 min – 45% solvent A, 4.0 min – 45% solvent A, 5.0 min – 0% solvent A, 6.0 min – 0% solvent A, 7.0 min – 95% solvent A). This was followed by a 3 min elution with 95% solvent A to re‐equilibrate the column. Flow rates were 0.2 mL/min. The mass spectrometer was operated in the positive ion mode with a drying gas temperature (280°C), drying gas flow rate (13 L min^−1), nebulizer pressure (40 psig), sheath gas temperature (350°C), sheath gas flow rate (12 L min^−1), capillary voltage (4000 V), nozzle voltage (1000 V). Data were analyzed using Agilent MassHunter Qualitative Analysis (Version B.07.00) software.

ARTQKNCysNH2ATAHHLGLLKARLAKLRR [DRG1‐CysNH2, 25-mer DRG1 (16–40) peptide with γ-thialysine at position 22]
time to formation of the cysteamine fragment (human JMJD7 [1]): ≤ 15 min | time to complete JMJD7-catalyzed hydroxylation (human JMJD7 [2]): ≤ 4 min | fate of the JMJD7 C3-hydroxylation product (human JMJD7 [3]): fragmentation to form DRG1‐formylglycine and its hydrated products
